Measurements: BigSolDB 2.1

O=C(O)CSc1ccc2ccccc2c1
solubility (mole fraction)
Settings	278.15 K	283.15 K	288.15 K	293.15 K	298.15 K	303.15 K	308.15 K	313.15 K	318.15 K	323.15 K
in DMF	0.00524	0.00586	0.0066	0.00738	0.00828	0.00917	0.0101	0.0112	0.0122	0.0135
in ethanol	0.0014	0.0018	0.00234	0.00282	0.00336	0.00394	0.00456	0.0052	0.00584	0.00669
in isopropanol	0.000227	0.0003	0.000383	0.000481	0.00058	0.000682	0.000801	0.000919	0.00105	0.0012
in methanol	0.00053	0.000675	0.000828	0.00102	0.00119	0.0014	0.0016	0.0018	0.00204	0.00235
in water	1.42e-06	1.95e-06	2.54e-06	3.16e-06	3.88e-06	4.53e-06	5.33e-06	6.1e-06	7e-06	8.05e-06
